Source: US8877244B2, “Stabilized pesticidal granules” (priority 2006, dated 2014)

How the values were obtained:
[1] = system: large crabgrass (Digitaria sanguinalis); test: Biology comparison: control of large crabgrass by stored granule samples; format: in vivo; details: after storage for 1 year at room temperature or 19 days at 50° C.
Description: Callisto® (a commercially available liquid formulation containing 4 lbs/gal of the active ingredient 2-(2′-nitro-4′-methylsulphonylbenzoyl)-1,3-cyclohexanedione acid) (Syngenta Crop Protection, Inc.) is sprayed onto fertilizer granules (Scotts® Turf Builder® Lawn Fertilizer 29-3-4 (with added nutrients)) (The Scotts Co.) in an amount sufficient to achieve an average a.i. loading of 0.082% by weight. Sample 2 is a control sample that is freshly prepared and has not been stored. Sample 3 is stored for 1 year at ambient room temperature. Sample 4 is stored under accelerated conditions (19 days at 50° C.).
A spray solution of Example 1 is sprayed onto fertilizer granules (Scotts® Turf Builder® Lawn Fertilizer 29-3-4 (with added nutrients)) (The Scotts Co.) in an amount sufficient to achieve an average a.i. loading of 0.082% by weight. Sample 5 is stored for 1 year at ambient room temperature. Sample 6 is stored under accelerated conditions (19 days at 50° C.).
All samples are applied to large crabgrass (Digitaria sanguinalis) at 224 g ai/ha, and control assessed 10 days after treatment. Sample 1 is an untreated control.

[2] = Stability comparison: accelerated temperature storage of coated granules, a.i. extracted and assayed by HPLC; format: physicochemical; details: storage at 38° C. and 50° C.
Description: The materials prepared in examples 1-7 are tested for stability as follows: • 1) After obtaining the coated granules according to the procedures given above, material is divided up into samples by using a standard “Riffler”, which is used to generate statistically representative samples from a large batch. • 2) The individual “riffled” samples are put on accelerated temperature storage (in ovens) at 38° C. and 50° C. • 3) Samples are pulled from each temperature at regular intervals, and assayed for 2-(2′-nitro-4′-methylsulphonylbenzoyl)-1,3-cyclohexanedione acid concentration (weight %). Commonly 2-3 samples are pulled from each temperature, each week. • 4) The pulled samples are analyzed for stability by extraction of the a.i. material from the granules and assayed by HPLC.

Which results are given for “2-(2′-nitro-4′-methylsulphonylbenzoyl)-1,3-cyclohexanedione copper chelate”?
control of large crabgrass compared with the unchelated (acid) form on fertiliser granules [1]: improved control of large crabgrass; stability on granules compared with the unchelated (acid) form [2]: improved stability
